According to patent US10160747B2, “Compounds and methods for kinase modulation, and indications therefor” (Plexxikon Inc., priority 2016, dated 2018):

Experiments:
[1] = test system: MOLM-14 F691L (endogenous FLT3 ITD and transfected FLT3 F691L); experiment: MOLM-14 F691L cell proliferation assay (CellTiter-Glo); type: cell-based; conditions: Homo sapiens, MOLM-14, 72 h; 3 d growth, GMean
Summary of the method: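 MOLM-14 cells (FLT3 ITD) carrying D835Y or F691L, 1×10^4 cells/well, eight 1:3 dilutions from 1 μM final, 0.2% DMSO, 3 days at 37 °C, 5% CO2. Viability by CellTiter-Glo luminescence (ATP content); IC50 from concentration-response.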

FLT3-D835Y = target: T1, FLT3-D835Y (Homo sapiens, UniProt P36888, D835Y); experiment: FLT3-D835Y recombinant enzyme kinase assay (AlphaScreen); type: biochemical; conditions: 8 pt, GMean
T1 construct: purchased Invitrogen PV3967
T1 sequence (P36888 27-993 D835Y): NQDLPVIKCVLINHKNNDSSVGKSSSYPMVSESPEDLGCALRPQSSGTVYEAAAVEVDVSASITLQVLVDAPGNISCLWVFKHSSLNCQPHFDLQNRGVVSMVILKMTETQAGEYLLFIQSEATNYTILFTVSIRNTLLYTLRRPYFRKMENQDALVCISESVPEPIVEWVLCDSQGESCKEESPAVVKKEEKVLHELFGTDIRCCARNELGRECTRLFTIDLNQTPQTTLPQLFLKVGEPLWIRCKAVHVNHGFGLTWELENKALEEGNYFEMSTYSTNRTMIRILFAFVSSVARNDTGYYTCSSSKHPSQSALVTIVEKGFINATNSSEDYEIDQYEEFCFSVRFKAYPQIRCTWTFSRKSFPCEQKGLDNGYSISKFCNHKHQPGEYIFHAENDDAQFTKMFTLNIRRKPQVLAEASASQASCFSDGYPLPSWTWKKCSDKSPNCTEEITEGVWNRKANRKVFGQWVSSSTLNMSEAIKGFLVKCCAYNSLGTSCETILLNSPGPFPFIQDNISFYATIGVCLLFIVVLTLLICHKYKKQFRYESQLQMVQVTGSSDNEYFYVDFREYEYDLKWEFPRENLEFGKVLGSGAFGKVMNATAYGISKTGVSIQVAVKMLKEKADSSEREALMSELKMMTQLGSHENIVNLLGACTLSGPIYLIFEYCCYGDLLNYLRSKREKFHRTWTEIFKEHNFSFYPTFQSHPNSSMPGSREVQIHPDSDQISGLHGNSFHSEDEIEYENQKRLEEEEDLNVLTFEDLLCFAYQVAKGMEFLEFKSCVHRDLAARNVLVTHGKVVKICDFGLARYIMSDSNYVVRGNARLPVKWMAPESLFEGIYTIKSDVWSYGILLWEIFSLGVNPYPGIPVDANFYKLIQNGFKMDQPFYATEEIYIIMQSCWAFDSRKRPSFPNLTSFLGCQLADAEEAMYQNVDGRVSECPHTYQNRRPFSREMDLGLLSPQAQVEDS
Description: In order to determine the effect of compounds on FLT3 catalytic activity, kinase assays using recombinant enzymes and AlphaScreen® technology have been established. The catalytic activity of c-kit activity was also measured to determine selectivity of the compounds. When the kinases are catalytically active, they phosphorylate a biotinylated peptide substrate on tyrosine residues. Using AlphaScreen® technology, the ability of the compounds to affect the catalytic activity of the kinases can be measured quantitatively. The peptide substrate is immobilized by the AlphaScreen® Streptavidin Donor beads and, upon phosphorylation by a tyrosine kinase, can bind to AlphaScreen® Anti-Phosphotyrosine (PY20) Acceptor beads. Upon excitation of these beads with laser light at 680 nm, singlet oxygen is produced. This singlet oxygen is rapidly quenched, unless the AlphaScreen® Anti-Phosphotyrosine (PY20) Acceptor beads are in close proximity, in which case a proximity signal can be measured at 580 nm. In the presence of catalytic activity, there is a very strong proximity signal. Selective kinase inhibitors affect a decrease in this proximity signal through a decrease in tyrosine phosphorylation of the peptide substrate.
The assay was performed as summarized below.
Poly (Glu4-Tyr) Peptide, biotin conjugate [Biotin-GG(EEEEY)10EE] (SEQ ID NO: 4)
Final concentration=30 nM
Adenosine Triphosphate (ATP)
Final concentration for IC50 determination=10 μM (FLT3-D835Y or FLT3-ITD) or 100 μM (c-KIT)
AlphaScreen® Phosphotyrosine (PY20) Assay Kit
Final concentration=10 μg/mL
Dilute compounds in DMSO to 20× final concentration.
Add 1 μL of compound to each well of 384 well reaction plate (Perkin Elmer #6005359).
Mix enzyme and Poly (Glu4-Tyr) Peptide substrate at 1.33× final concentration in assay buffer.
Mix ATP at 5× final concentration in assay buffer.
Add 15 μL enzyme/substrate mixture to the reaction plate.
Add 4 μL of ATP to the reaction plate.
Mix Streptavidin Donor beads at 6× final concentration in Stop/Detection buffer.
Add 5 μL Streptavidin Donor beads to the reaction plate. Centrifuge 1 minute, shake to mix, and incubate at room temperature for 20 minutes.
Mix Anti-Phosphotyrosine (PY20) Acceptor beads at 6× final concentration in Stop/Detection buffer.
Add 5 μL Anti-Phosphotyrosine (PY20) beads to the reaction plate.
Centrifuge 1 minute, shake to mix, and incubate at room temperature for 60 minutes.
Read plate on Wallac EnVision™ 2103 Multilabel Reader.

In the case of `Cn1cc(Nc2ncc(-c3ccc(CC(=O)Nc4ccnc(C5CC5)c4)c(F)c3)cn2)cn1` [Compound P-0098, N-(2-cyclopropyl-4-pyridyl)-2-[2-fluoro-4-[2-[(1-methylpyrazol-4-yl)amino]pyrimidin-5-yl]phenyl]acetamide], the IC50 [1] is reported as 0.0001 to 10 µM and the IC50 (FLT3-D835Y) is reported as 0.0001 to 10 µM.
Work on `COc1ncc(NC(=O)Cc2ccc(-c3cnc(Nc4cn(C)cn4)nc3)cc2F)cc1C(F)(F)F` [Compound P-0101, 2-[2-fluoro-4-[2-[(1-methylimidazol-4-yl)amino]pyrimidin-5-yl]phenyl]-N-[6-methoxy-5-(trifluoromethyl)-3-pyridyl]acetamide] yielded an IC50 [1] of 0.0001 to 10 µM and an IC50 (FLT3-D835Y) of 0.0001 to 10 µM.
For `O=C(Cc1ccc(-c2cnc3[nH]c(-c4ccc(N5CCOCC5)nc4)cc3c2)cn1)Nc1ccnc(C(F)(F)F)c1` [Compound P-0183, 2-[5-[2-(6-morpholino-3-pyridyl)-1H-pyrrolo[2,3-b]pyridin-5-yl]-2-pyridyl]-N-[2-(trifluoromethyl)-4-pyridyl]acetamide], the IC50 [1] was 0.0001 to 10 µM and the IC50 (FLT3-D835Y) was 0.0001 to 10 µM.
In the case of `N#Cc1ccc(-c2cc3cc(-c4ccc(CC(=O)Nc5cncc(C(F)(F)F)c5)cc4F)cnc3[nH]2)cn1` [Compound P-0195, 2-[4-[2-(6-cyano-3-pyridyl)-1H-pyrrolo[2,3-b]pyridin-5-yl]-3-fluoro-phenyl]-N-[5-(trifluoromethyl)-3-pyridyl]acetamide], the IC50 (FLT3-D835Y) is reported as 0.0001 to 10 µM.
`Cn1cc(Nc2ncc(-c3ccc(CC(=O)Nc4cccnc4)cc3)cn2)cn1` [Compound P-0131, 2-[4-[2-[(1-methylpyrazol-4-yl)amino]pyrimidin-5-yl]phenyl]-N-(3-pyridyl)acetamide] was tested, and the IC50 [1] was 0.0001 to 10 µM and the IC50 (FLT3-D835Y) was 0.0001 to 10 µM.
In the case of `Cn1cnc(Nc2ncc(-c3ccc(CC(=O)Nc4cnc(Cl)c(C(F)(F)F)c4)c(F)c3)cn2)c1` [Compound P-0100, N-[6-chloro-5-(trifluoromethyl)-3-pyridyl]-2-[2-fluoro-4-[2-[(1-methylimidazol-4-yl)amino]pyrimidin-5-yl]phenyl]acetamide], the IC50 [1] is reported as 0.0001 to 10 µM and the IC50 (FLT3-D835Y) is reported as 0.0001 to 10 µM.
`Cc1ncc(NC(=O)Cc2ccc(-c3cnc(Nc4cn(C)cn4)nc3)cc2)cc1C(F)(F)F` [Compound P-0150, 2-[4-[2-[(1-methylimidazol-4-yl)amino]pyrimidin-5-yl]phenyl]-N-[6-methyl-5-(trifluoromethyl)-3-pyridyl]acetamide] gave an IC50 [1] of 0.0001 to 10 µM and an IC50 (FLT3-D835Y) of 0.0001 to 10 µM.
For `COc1ccccc1CNC(=O)Cc1ccc(-c2cnc(Nc3cnn(C)c3)nc2)cc1` [Compound P-0160, N-[(2-methoxyphenyl)methyl]-2-[4-[2-[(1-methylpyrazol-4-yl)amino]pyrimidin-5-yl]phenyl]acetamide], the IC50 [1] was 0.0001 to 10 µM.
`Cc1n[nH]c2ncc(-c3ccc(CC(=O)Nc4cncc(C(F)(F)F)c4)cc3F)cc12` [Compound P-0177, 2-[3-fluoro-4-(3-methyl-1H-pyrazolo[3,4-b]pyridin-5-yl)phenyl]-N-[5-(trifluoromethyl)-3-pyridyl]acetamide] showed an IC50 (FLT3-D835Y) of 0.0001 to 10 µM.
`Cn1cc(Nc2ncc(-c3ccc(CC(=O)NCc4ncccc4C(F)(F)F)cc3)cn2)cn1` [Compound P-0159, 2-[4-[2-[(1-methylpyrazol-4-yl)amino]pyrimidin-5-yl]phenyl]-N-[[3-(trifluoromethyl)-2-pyridyl]methyl]acetamide] gave an IC50 [1] of 0.0001 to 10 µM.
With `Cc1ncc(NC(=O)Cc2ccc(-c3cnc4[nH]nc(C)c4c3)c(F)c2)cc1C(F)(F)F` [Compound P-0172, 2-[3-fluoro-4-(3-methyl-1H-pyrazolo[3,4-b]pyridin-5-yl)phenyl]-N-[6-methyl-5-(trifluoromethyl)-3-pyridyl]acetamide] the IC50 (FLT3-D835Y) was 0.0001 to 10 µM.
`Cn1cc(Nc2ncc(-c3ccc(CC(=O)NCc4cccnc4)cc3)cn2)cn1` [Compound P-0132, 2-[4-[2-[(1-methylpyrazol-4-yl)amino]pyrimidin-5-yl]phenyl]-N-(3-pyridylmethyl)acetamide] was tested, and the IC50 [1] was 0.0001 to 10 µM.
`Cc1cc(-c2cnc3[nH]c(-c4ccccc4)cc3c2)ccc1CC(=O)Nc1cccc(C(F)(F)F)c1` [Compound P-0001, 2-[2-methyl-4-(2-phenyl-1H-pyrrolo[2,3-b]pyridin-5-yl)phenyl]-N-[3-(trifluoromethyl)phenyl]acetamide] showed an IC50 [1] of 0.0001 to 10 µM.
With `Cc1n[nH]c2ncc(-c3cc(F)c(CC(=O)Nc4cncc(C(F)(F)F)c4)cc3F)cc12` [Compound P-0173, 2-[2,5-difluoro-4-(3-methyl-1H-pyrazolo[3,4-b]pyridin-5-yl)phenyl]-N-[5-(trifluoromethyl)-3-pyridyl]acetamide] the IC50 (FLT3-D835Y) was 0.0001 to 10 µM.
`N#Cc1cc(-c2cc3cc(-c4ccc(CC(=O)Nc5cc(C(F)(F)F)ccn5)cc4F)cnc3[nH]2)ccn1` [Compound P-0194, 2-[4-[2-(2-cyano-4-pyridyl)-1H-pyrrolo[2,3-b]pyridin-5-yl]-3-fluoro-phenyl]-N-[4-(trifluoromethyl)-2-pyridyl]acetamide] showed an IC50 (FLT3-D835Y) of 0.0001 to 10 µM.
With `Cn1cc(Nc2ncc(-c3ccc(CC(=O)Nc4cnnc(Cl)c4)cc3)cn2)cn1` [Compound P-0151, N-(6-chloropyridazin-4-yl)-2-[4-[2-[(1-methylpyrazol-4-yl)amino]pyrimidin-5-yl]phenyl]acetamide] the IC50 (FLT3-D835Y) was 0.0001 to 10 µM.
Compound `COc1ncc(NC(=O)Cc2cc(F)c(-c3cnc4[nH]nc(C)c4c3)cc2F)cc1C(F)(F)F` [Compound P-0176, 2-[2,5-difluoro-4-(3-methyl-1H-pyrazolo[3,4-b]pyridin-5-yl)phenyl]-N-[6-methoxy-5-(trifluoromethyl)-3-pyridyl]acetamide] has an IC50 (FLT3-D835Y) of 0.0001 to 10 µM.
`N#Cc1cc(-c2cc3cc(-c4ccc(CC(=O)Nc5cncc(C(F)(F)F)c5)cc4F)cnc3[nH]2)ccn1` [Compound P-0199, 2-[4-[2-(2-cyano-4-pyridyl)-1H-pyrrolo[2,3-b]pyridin-5-yl]-3-fluoro-phenyl]-N-[5-(trifluoromethyl)-3-pyridyl]acetamide] gave an IC50 [1] of 0.0001 to 10 µM.
`COc1ncc(NC(=O)Cc2ccc(-c3cnc4[nH]nc(C)c4c3)c(F)c2)cc1C(F)(F)F` [Compound P-0174, 2-[3-fluoro-4-(3-methyl-1H-pyrazolo[3,4-b]pyridin-5-yl)phenyl]-N-[6-methoxy-5-(trifluoromethyl)-3-pyridyl]acetamide] showed an IC50 (FLT3-D835Y) of 0.0001 to 10 µM.
`Cc1ncc(NC(=O)Cc2cc(F)c(-c3cnc4[nH]nc(C)c4c3)cc2F)cc1C(F)(F)F` [Compound P-0175, 2-(2,5-difluoro-4-(3-methyl-1H-pyrazolo[3,4-b]pyridin-5-yl)phenyl)-N-(6-methyl-5-(trifluoromethyl)pyridin-3-yl)acetamide] was tested, and the IC50 (FLT3-D835Y) was 0.0001 to 10 µM.
`Cn1cnc(Nc2ncc(-c3ccc(CC(=O)Nc4cnc(F)c(C(C)(F)F)c4)cc3F)cn2)c1` [Compound P-0170, N-[5-(1,1-difluoroethyl)-6-fluoro-3-pyridyl]-2-[3-fluoro-4-[2-[(1-methylimidazol-4-yl)amino]pyrimidin-5-yl]phenyl]acetamide] gave an IC50 (FLT3-D835Y) of 0.0001 to 10 µM.
